Measurements as given in US20260008768A1, “UREA DERIVATIVES FOR INHIBITING NLRP3 AND USES THEREOF” (VENTUS THERAPEUTICS U.S., INC., priority 2023, published 2026).

Molecular target: human NLRP3 (Homo sapiens, UniProt Q96P20)
Assay: Human Whole Blood (hWB) NLRP3 Assay (LPS/ATP, IL-1β)
Format: cell-based
Parameters: host or cells: human whole blood from healthy volunteers (A3)
Protocol: Human whole blood is drawn from healthy volunteers after obtaining written informed consent. Heparin lithium coated tubes are used to collect blood from volunteers. Blood samples are distributed on 96 well plates using 90 μl per well.
Priming procedure: Priming is performed by adding 5 μl of LPS (O26:B6; Sigma L-2654) at a final concentration of 1 μg/ml for 4.5 hours in a humidified incubator with 37° C., 5% CO2. Thirty minutes prior to NLRP3 activation, 5 μl of a 20× compound solution or vehicle (2% dimethylsulfoxide (DMSO)) is added to each well and plates were incubated on a shaker (450 rpm) in a humidified incubator with 37° C., 5% CO2.
Alternative priming procedure: Thirty minutes prior to LPS priming, 5 μl of a 20× compound solution or vehicle (2% dimethylsulfoxide (DMSO)) is added to each well and plates were incubated on a shaker (450 rpm) in a humidified incubator with 37° C., 5% CO2. Priming is performed by adding 5 μl of LPS (O26:B6; Sigma L-2654) at a final concentration of 1 μg/ml for 5 hours in a humidified incubator with 37° C., 5% CO2.
Activation is then performed by adding 3.3 μl of a 31×ATP solution per well. At the end of the 30 minutes stimulation, the plates are centrifuged (800 g, 10 min, room temperature) and the plasma from each well is frozen at −80° C. IL-1β levels in the supernatant were analyzed using a mesoscale discovery assay (MSD K151TUK) according to the manufacturers' instructions.
There is no detectable difference in assay results using the priming procedure versus the alternative priming procedure.
hWB NLRP3 IC50 assay results, as a measurement of whole blood potency, are provided in Table B. “A” activity=<1 uM; “B” activity=1-2 uM; “C” activity=>2-3 uM; “D” activity=>3 uM.

Sequence of human NLRP3 (Q96P20 whole entry): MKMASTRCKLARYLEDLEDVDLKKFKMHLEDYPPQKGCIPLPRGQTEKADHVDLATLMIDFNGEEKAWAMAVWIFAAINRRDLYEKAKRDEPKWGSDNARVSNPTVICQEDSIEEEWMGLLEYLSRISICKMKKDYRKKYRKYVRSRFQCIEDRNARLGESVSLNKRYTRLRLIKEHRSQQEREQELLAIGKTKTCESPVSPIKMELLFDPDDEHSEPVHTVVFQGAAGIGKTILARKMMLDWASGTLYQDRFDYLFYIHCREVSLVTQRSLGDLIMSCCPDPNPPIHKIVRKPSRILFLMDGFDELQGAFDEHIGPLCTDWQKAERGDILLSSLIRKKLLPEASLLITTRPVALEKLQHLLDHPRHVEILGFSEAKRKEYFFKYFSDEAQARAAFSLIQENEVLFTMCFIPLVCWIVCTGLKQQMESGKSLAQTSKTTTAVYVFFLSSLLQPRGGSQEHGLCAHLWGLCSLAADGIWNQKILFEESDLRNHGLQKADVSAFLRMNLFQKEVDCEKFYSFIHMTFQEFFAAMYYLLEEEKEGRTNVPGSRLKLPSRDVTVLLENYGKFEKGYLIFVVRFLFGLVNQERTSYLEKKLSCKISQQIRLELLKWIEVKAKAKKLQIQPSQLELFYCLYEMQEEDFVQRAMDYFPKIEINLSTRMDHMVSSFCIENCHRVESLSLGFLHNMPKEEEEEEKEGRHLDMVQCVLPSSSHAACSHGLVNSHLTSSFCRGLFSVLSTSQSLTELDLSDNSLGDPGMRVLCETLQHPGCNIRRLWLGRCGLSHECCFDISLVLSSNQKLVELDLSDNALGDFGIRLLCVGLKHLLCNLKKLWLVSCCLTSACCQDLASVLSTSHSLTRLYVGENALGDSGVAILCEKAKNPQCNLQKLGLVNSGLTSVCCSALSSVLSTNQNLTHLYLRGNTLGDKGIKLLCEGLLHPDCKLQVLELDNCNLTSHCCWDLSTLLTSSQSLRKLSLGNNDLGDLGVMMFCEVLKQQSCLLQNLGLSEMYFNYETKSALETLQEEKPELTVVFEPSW

SMILES	IC50 (Table B, activity class)	IC50 (Table C)
C[C@@H]1CCN(c2nnn[nH]2)C[C@H](NC(=O)N(C)c2ccc(Cl)cc2)C1 (single isomer, unassigned) [4A*]	< 1 µM	0.15 µM
C[C@@H]1CCN(c2nnn[nH]2)C[C@H](NC(=O)N(C)c2ccc(OC(F)(F)F)cc2)C1 (single isomer, unassigned) [10A*]	< 1 µM	0.3 µM
C[C@@H]1CCN(c2nnn[nH]2)C[C@H](NC(=O)N(C)c2ccc(OC(F)F)cc2)C1 (single isomer, unassigned) [11A*]	< 1 µM	0.058 µM
